Test results from paper PMC2669305 (Assay and drug development technologies, 2008).

Molecular target: T1, thioredoxin glutathione reductase (TGR) (Schistosoma mansoni, UniProt Q962Y6)
T1 sequence (Q962Y6 1-598): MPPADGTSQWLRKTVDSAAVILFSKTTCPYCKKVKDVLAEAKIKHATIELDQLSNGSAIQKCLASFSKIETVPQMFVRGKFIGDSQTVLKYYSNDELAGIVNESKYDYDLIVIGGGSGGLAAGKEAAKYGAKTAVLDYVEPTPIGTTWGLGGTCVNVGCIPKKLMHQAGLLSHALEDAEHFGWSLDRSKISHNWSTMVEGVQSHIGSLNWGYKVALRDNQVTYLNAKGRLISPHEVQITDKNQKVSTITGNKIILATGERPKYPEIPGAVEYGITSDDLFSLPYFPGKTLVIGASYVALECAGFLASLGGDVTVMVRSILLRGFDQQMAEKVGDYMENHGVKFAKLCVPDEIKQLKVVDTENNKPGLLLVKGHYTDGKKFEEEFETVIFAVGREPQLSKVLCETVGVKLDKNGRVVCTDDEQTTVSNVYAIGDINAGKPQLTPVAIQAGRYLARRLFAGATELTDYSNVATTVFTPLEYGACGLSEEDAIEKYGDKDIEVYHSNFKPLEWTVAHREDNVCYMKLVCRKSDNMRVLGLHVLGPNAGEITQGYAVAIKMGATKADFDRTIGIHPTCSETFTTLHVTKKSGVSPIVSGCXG
Assay type: biochemical

`N#Cc1c(-c2ccccc2)no[n+]1[O-]` [furoxan, 4-phenyl-3-furoxancarbonitrile] showed an IC50 of 4 to 7.9 µM.
